Entries after “also recorded” stand apart in the source; their conditions may differ. Read-outs that look alike come from different tables or passages of the source.
Assays:
SH-SY5Y cells = assay: MTT assay, SH-SY5Y survival under oxidative stress (H2O2); type: cell-based, human
Experimental: SH-SY5Y cells were treated with H2O2 for 30 minutes to induce cell injuries. 3 hours before the cells were treated with H2O2, berberine (0.25˜3.5 μg) was added to cell culture to examine its cell protection effect (see, Table 4 and FIG. 4b).

HiB5 cells = conditions: for O.D. %: control = 100
Experimental: Since HiB5 cells derived from white rat embryonic hippocampus were prepared by retroviral infection of temperature sensitive SV40 large T antigen, they divided at […], but the cell division stopped at 39° C. (body temperature of rat). […] Cell culture medium was prepared by adding a mixture of 10% FBS (fetal bovine serum), penicillin/streptomycin, glutamine and sodium pyruvate (0.11 g/L) to DMEM. On differentiating at 39° C., another cell culture medium was prepared by adding pyruvate to a serum-free medium (N2, containing DMEM/F12, insulin, transferrin, Putreseine and BSA; Botten Stein & Sato., 1979). PC12 cells and SH-SY5Y cells were cultured in DMEM supplemented with 10% FBS. In order to differentiate the cells, NGF or retinoic acid was added to a serum-free medium.
Cell injuries under condition of serum deprivation-induced stress and oxidative stress were measured by MTT assay. For MTT assay, Cells were seeded into N2 medium in an amount of 7.5×10^3 cells, and then a neurotoxin or a nerve growth factor was added thereto to differentiate the cells and then 0.1 volume of 4 mg/ml MTT was further added. The mixture was stored at 37° C. for 3-4 hours. After 100 μl of solubilization buffer was added to the mixture and then stored for 24 hours, O.D. values were measured by ELISA assay.
HiB5 cell line used in this experiment was prepared by infecting primary cultured cells of temperature sensitive SV40 large T antigen in rat embryonic hippocampus (embryonic day 16) using retroviral vectors. The HiB5 cell line was divided at the permissive temperature (32° C.), but the cell division stopped at the non-permissive temperature (body temperature of rat: 39° C.). A small number of GABAegic neurons differentiated in the rat embryonic hippocampus (embryonic day 16), and glutamatergic pyramidal cell precursors still divided, some of which penetrated into dentate gyrus regions through dentate migration pathways in embryonic day 18 to differentiate into glutamatergic granule cells (Altman J., Bayer. S. A. (1990a) Prolonged sojourn of developing pyramidal cells in the intermediate zone of the hippocampus and their settling in the stratum pyramidale. J Comp Neurol. 301, 343-64.; Altman J., Das G. D. (1965) Post-natal origin of microneurones in the rat brain, Nature. 28, 953-956.). When cells stop their cell-division and start to differentiate in vivo, apoptosis occurs.
In order to evaluate the protective effect of berberine against apoptosis and the effect of increasing cell survival, HiB5 cells were cultured under conditions for initiation of differentiation. At this time, the culture was treated with berberine at various concentrations (50 ng/ml˜6 μg/ml). The protective effect of berberine against apoptosis was measured by MTT assay. A positive control group was treated with bFGF to block apoptosis, increase cell survival and induce the differentiation into nerve cells.
Since HiB5 neuronal stem cells undergo cell death during the differentiation, the cells were considered as a negative control group. The percentage of O.D. values is determined for the groups treated with bFGF and berberine, respectively.

bcl-2 mRNA = assay: Expression of bcl-2 mRNA in white rat cerebra (RT-PCR); type: in vivo; conditions: berberine 5 mg/kg intraperitoneally
Experimental: All groups were intraperitoneally injected. RT-PCR was performed to examine the expression of bcl-2 mRNA, which is an anti-apoptosis gene expressed in cerebral tissues. GAPDH mRNA was used as a control group. The expression of GAPDH mRNA was also performed by RT-PCR method.
1 ml of TRI Reagent (Molecular Research Center Inc., USA) was added to 100 mg of cerebral tissue sections, and the mixture was homogenized and then left at room temperature for 10 minutes. 0.1 ml of BCP (Sigma, USA) was added to 1 ml of the homogenized mixture, mixed with each other for 1 minute, and then left at 4° C. for 10 minutes. After the mixture was centrifuged at 12,000 rpm, 4° C. for 15 minutes, the supernatant was added to cold isopropanol and left at a temperature of −20° C. for 16 hours. Thereafter, the supernatant was centrifuged at 12,000 rpm, 4 for 15 minutes to obtain RNA precipitates. The obtained RNA precipitates were washed with DEPC diethylpyrocarbonate)-treated cold ethanol (75%), and dried using SpeedVac. The dried RNA was dissolved in DEPC-treated distilled water. After the concentration and purity of RNA were spectrophotometrically measured at 260 nm, the isolated RNA was stored at a temperature of −20° C. before use. […]
10 μl of amplified PCR product was electrophoresed in a 1.5% agarose gel, and the density was measured using a gel documentation system (Bio-Rad Lab, USA).

[1] = N2, H2O2 + berberine 0.25 μg/ml

For `COc1ccc2cc3[n+](cc2c1OC)CCc1cc2c(cc1-3)OCO2` [Berberine, 7,8,13,13a-tetradihydro-9,10-dimethoxy-2,3-(methylenedioxy) berbinium], the “Average (O.D. relative to H2O2 alone)” value (SH-SY5Y cells; [1]) was 208%, the O.D. (SH-SY5Y cells; [1]) was 0.116 and the “Average (O.D. relative to H2O2 alone)” value (SH-SY5Y cells; N2, H2O2 + berberine 1.5 μg/ml) was 287%. For the same compound, the O.D. (SH-SY5Y cells; N2, H2O2 + berberine 1.5 μg/ml) was 0.16, the “Average (O.D. relative to H2O2 alone)” value (SH-SY5Y cells; N2, H2O2 + berberine 3 μg/ml) was 344% and the O.D. (SH-SY5Y cells; N2, H2O2 + berberine 3 μg/ml) was 0.192. The “Average (O.D. relative to H2O2 alone)” value (SH-SY5Y cells; N2, H2O2 + berberine 3.5 μg/ml) was 228%, the O.D. (SH-SY5Y cells; N2, H2O2 + berberine 3.5 μg/ml) was 0.127 and the O.D. % (HiB5 cells; 50 ng) was 99%. The O.D. % (HiB5 cells; 100 ng) was 103%, the O.D. % (HiB5 cells; 250 ng) was 111% and the O.D. % (HiB5 cells; 500 ng) was 140%. For the same compound, the O.D. % (HiB5 cells; 700 ng) was 154%, the O.D. % (HiB5 cells; 1 μg) was 153% and the O.D. % (HiB5 cells; 1.5 μg) was 162%. For the same compound, the O.D. % (HiB5 cells; 2 μg) was 173%, the O.D. % (HiB5 cells; 2.5 μg) was 185% and the O.D. % (HiB5 cells; 3 μg) was 190%. The O.D. % (HiB5 cells; 4 μg) was 189%, the O.D. % (HiB5 cells; 5 μg) was 191% and the O.D. % (HiB5 cells; 6 μg) was 190%. For the same compound, the “cell survival rate / protective effect against apoptosis, increase over control” value (HiB5 cells; HiB5 under differentiation conditions, MTT) was “about two times”, the cell survival rate (HiB5 cells; berberine 250˜500 ng/ml) was “somewhat increased” and the cytotoxicity (HiB5 cells; berberine up to 6 μg/ml) was “no cytotoxicity”. For the same compound, the “expression of bcl-2 mRNA in cerebral tissues” value (bcl-2 mRNA) was “High bcl-2 mRNA Expression” and the “expression of bcl-2 mRNA in cerebral tissues” value (bcl-2 mRNA; listed as berberine) was “higher than in the control group; also recorded: increased”.

Source: patent US20040097534A1, “Composition for the protection and regeneration of nerve cells containing berberine derivatives” (EUGENBIO INC., priority 2001, published 2004)
